Where two headings read alike, the source gives them in different places.
Assays:
Assay in all cases: Glasshouse assay for herbicidal activity (pre- and post-emergence), percentage phytotoxicity
Type in all cases: in vivo
[1] = test system: Alopecurus myosuroides (ALOMY); details: Alopecurus myosuroides, Rate 250 g/ha, 100%=total damage, 0%=no damage
Procedure: (§1) Test—Glasshouse Assay for Herbicidal Activity
(§2) Seeds of a variety of monocotyledonous and dicotyledonous test plants are sown in standard soil in pots. The plants are cultivated for one day (for pre-emergence (PRE)) or for about 12 days (for post-emergence (POST)) under controlled conditions in a glasshouse (warm climate species at 24/18° C., cool climate species at 20/16° C., both at day/night; 16 hours light; 65% humidity).
(§3) The test plants are then grown on, in a glasshouse (greenhouse) under controlled conditions (warm climate species at 24/18° C., cool climate species at 20/16° C., both at day/night; 16 hours light; 65% humidity) and are watered twice daily. 15 days after application of the test herbicide (15 DAA) (for post-emergence), and 20 days after application of the test herbicide (20 DAA) (for pre-emergence), the test plants are evaluated visually, and an assessed percentage phytotoxicity score is given for each herbicidal application on each plant species (with 100%=total damage to plant; 0%=no damage to plant).
(§4) The plant species tested are as follows: Alopecurus myosuroides (ALOMY), Avena fatua (AVEFA), Lolium perenne (LOLPE), Echinochloa crus-galli (ECHCG).

Avena fatua (AVEFA) = details: Avena fatua, Rate 250 g/ha, 100%=total damage, 0%=no damage
Procedure: as §1, §2, §3, §4

[2] = test system: Echinochloa crus-galli (ECHCG); details: Echinochloa crus-galli, Rate 250 g/ha, 100%=total damage, 0%=no damage
Procedure: as §1, §2, §3, §4

Lolium perenne (LOLPE) = details: Lolium perenne, Rate 250 g/ha, 100%=total damage, 0%=no damage
Procedure: as §1, §2, §3, §4

[3] = post-emergence, 360 h, post-emergence, assessed visually 15 DAA, read-out: Post-emergence herbicidal activity (percentage phytotoxicity) ALOMY POST
[4] = pre-emergence, 480 h, pre-emergence, assessed visually 20 DAA, read-out: Pre-emergence herbicidal activity (percentage phytotoxicity) ALOMY PRE
[5] = post-emergence, 360 h, post-emergence, assessed visually 15 DAA, read-out: Post-emergence herbicidal activity (percentage phytotoxicity) AVEFA POST
[6] = pre-emergence, 480 h, pre-emergence, assessed visually 20 DAA, read-out: Pre-emergence herbicidal activity (percentage phytotoxicity) AVEFA PRE
[7] = post-emergence, 360 h, post-emergence, assessed visually 15 DAA, read-out: Post-emergence herbicidal activity (percentage phytotoxicity) ECHCG POST
[8] = pre-emergence, 480 h, pre-emergence, assessed visually 20 DAA, read-out: Pre-emergence herbicidal activity (percentage phytotoxicity) ECHCG PRE
[9] = post-emergence, 360 h, post-emergence, assessed visually 15 DAA, read-out: Post-emergence herbicidal activity (percentage phytotoxicity) LOLPE POST
[10] = pre-emergence, 480 h, pre-emergence, assessed visually 20 DAA, read-out: Pre-emergence herbicidal activity (percentage phytotoxicity) LOLPE PRE

Compound | pest or weed control at 250 g/ha [1, 3] | pest or weed control at 250 g/ha [1, 4] | pest or weed control at 250 g/ha (Avena fatua (AVEFA); [5]) | pest or weed control at 250 g/ha (Avena fatua (AVEFA); [6]) | pest or weed control at 250 g/ha [2, 7] | pest or weed control at 250 g/ha [2, 8] | pest or weed control at 250 g/ha (Lolium perenne (LOLPE); [9]) | pest or weed control at 250 g/ha (Lolium perenne (LOLPE); [10])
CCC(C)(C)NC(=O)CC1CC(=O)C(c2c(C)cc(-c3ncc(Cl)cc3F)cc2C)C1=O (centres unmarked) [Compound A46] | 100% | 100% | 100% | 90% | 100% | 100% | 100% | 90%
COCCNC(=O)CC1CC(=O)C(c2c(C)cc(-c3ncc(Cl)cc3F)cc2C)C1=O (centres unmarked) [Compound A47] | 100% | 100% | 100% | 100% | 100% | 100% | 100% | 100%
CC#Cc1cc(C)c(C2C(=O)CC(CC(=O)NC(C)(C)C)C2=O)c(CC)c1 (centres unmarked) [Compound A48] | 100% | 100% | 100% | 90% | 100% | 100% | 100% | 100%
CC#Cc1cc(C)c(C2C(=O)CC(CC(=O)NCCOC)C2=O)c(CC)c1 (centres unmarked) [Compound A49] | 100% | 100% | 100% | 100% | 100% | 100% | 100% | 100%
CC#Cc1cc(C)c(C2C(=O)CC(CC(=O)NC(C)(C)CC)C2=O)c(CC)c1 (centres unmarked) [Compound A50] | 100% | 100% | 100% | 100% | 100% | 90% | 100% | 100%
CC#Cc1cc(C)c(C2C(=O)CC(CC(=O)NCCCC)C2=O)c(CC)c1 (centres unmarked) [Compound A51] | 100% | 100% | 100% | 100% | 100% | 100% | 100% | 100%
CC#Cc1cc(C)c(C2C(=O)CC(CC(=O)NC3CCCC3)C2=O)c(CC)c1 (centres unmarked) [Compound A52] | 100% | 100% | 100% | 90% | 100% | 90% | 90% | 90%
CC#Cc1cc(C)c(C2C(=O)CC(CC(=O)NCC(C)(C)C)C2=O)c(CC)c1 (centres unmarked) [Compound A53] | 100% | 90% | 90% | 80% | 100% | 100% | 90% | 90%
CC#Cc1cc(C)c(C2C(=O)CC(CC(=O)NC(C)C)C2=O)c(CC)c1 (centres unmarked) [Compound A54] | 100% | 100% | 100% | 100% | 100% | 100% | 100% | 100%
CC#Cc1cc(C)c(C2C(=O)CC(CC(=O)NCc3ccsc3)C2=O)c(C)c1 (centres unmarked) [Compound A55] | 90% | 90% | 100% | 80% | 100% | 100% | 90% | 90%
